This is an account of results in paper PMC11272598, “RG7774 (Vicasinabin), an orally bioavailable cannabinoid receptor 2 (CB2R) agonist, decreases retinal vascular permeability, leukocyte adhesion, and ocular inflammation in animal models” (Frontiers in Pharmacology, 2024).

For orientation: clearance means the rate of elimination divided by the concentration. A word on the half-life: it is how long it takes for the measured level to halve. Broadly, the Tmax is the time at which the peak concentration occurs. As usually defined, the bioavailability is dose-corrected exposure relative to a reference, in per cent. Lower therefore signals little systemic uptake. The term Ki denotes the equilibrium dissociation constant of an inhibitor or competing ligand from its target.

One data set concerns Human DAGL. The data set is described as follows: Human DAGL assay (HaCaT cells). The class given is biochemical. The note with it: RG7774 10 µM. The method, then: (§1) Mouse brain or human HaCaT cells (CLS Cell Lines Service, GmbH, Eppelheim, Germany) were homogenized in 50 mM Tris-HCl (pH 7.4) using a glass potter, and homogenates were centrifuged at 4°C sequentially at 800 g (10 min) and 10,000 g (30 min). The final pellet (80–200 µg) was resuspended in 50 mM Tris-HCl (pH 7.4) containing 10 mM CaCl2 and incubated at 37°C for 30 min with sn-1[^14C]-stearoyl-2-arachidonoyl-glycerol (100 µM) (ARC, MO, USA). Reactions were stopped by adding chloroform/methanol (2:1, v/v), and the organic phase was dried and fractionated by thin-layer chromatography on silica gel, as previously reported. Levels of 1[^14C]-stearoyl acid radioactivity were determined by cutting the appropriate band from the gel and analyzing using a β-scintillation counter. Mouse cells were preincubated for 15 min with RG7774 (10 µM) and added to the incubation medium. Human cells were preincubated for 15 min with 8 different concentrations of RG7774 (0.1-500 µM) and added to the incubation medium. Control experiments were carried out in the presence of the selective DAGL inhibitor, D053 (10 µM).

Data set [1] can be described thus: Plasma PK profile in rats. The settings on record: mean (% CV). The class given is in vivo, Wistar rats. The method, then: The plasma PK profile of RG7774 was assessed in adult male C57BL/6J mice and female Wistar rats (Charles River, Cologne, Germany) housed in a controlled environment (temperature, humidity, and 12 h light/dark cycle) with unrestricted access to food and water. The ocular PK profile of RG7774 was assessed in adult female […] rats (Charles River, Mattawan, MI, United States) housed in a controlled environment (21°C–22°C temperature, 40%–60%, humidity, and 12 h light/dark cycle) with unrestricted access to food and water and conducted according to local regulations by EyeCRO (Ann Arbor, MI, United States).
In the first study (animal permission #1857), mice received RG7774 as an intravenous (IV) bolus at 1 mg/kg (n = 6) or as an oral (PO) dose at 3 mg/kg (n = 5). In the second study (animal permission #2373), rats received RG7774 as an IV bolus at 10 mg/kg (n = 4) or via gavage at 30 mg/kg (n = 3). Blood samples were collected 0.1, 1, 3, 10, and 24 h post-dose under deep anesthesia with 3%–5% isoflurane in 100% O2. Samples were collected sublingually from mice, from the tail vein in rats or via heart puncture (terminal) into anticoagulant-coated polypropylene tubes and placed on ice. Plasma was prepared within 30 min of collection by centrifugation at 3,000 g for 5 min at 4°C and was immediately frozen. RG7774 concentrations in plasma were determined using LC-MS/MS. PK parameters were estimated by non-compartmental analysis of plasma data using Phoenix WinNonlin software (Certara, Princeton, NJ, United States).

In data set [2] the target is T1, endogenous CB2R in mouse spleen tissues (Mus musculus, UniProt P47936).
T1 construct: from tissue; host or cells: mouse spleen membranes
T1 sequence (P47936 whole entry): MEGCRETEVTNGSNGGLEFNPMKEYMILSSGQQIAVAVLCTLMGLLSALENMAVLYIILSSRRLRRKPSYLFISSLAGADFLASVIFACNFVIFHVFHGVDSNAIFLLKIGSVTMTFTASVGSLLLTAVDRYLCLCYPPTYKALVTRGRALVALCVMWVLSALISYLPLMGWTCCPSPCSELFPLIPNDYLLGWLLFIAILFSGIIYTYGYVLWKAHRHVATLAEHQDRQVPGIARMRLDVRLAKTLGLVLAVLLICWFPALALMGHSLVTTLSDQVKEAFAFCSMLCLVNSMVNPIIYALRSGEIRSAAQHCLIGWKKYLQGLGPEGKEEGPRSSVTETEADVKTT
Description: Competition binding, [^3H]-RO6753361, mouse spleen membranes. The method, then: (§2) Competition and saturation binding assays were performed using the radiolabeled CB1R/CB2R agonist [^3H]-CP55940 (PerkinElmer, Waltham, MA, United States) in recombinant cell systems, and the newly developed CB2R-selective agonist [^3H]-RO6753361 ([Chicca et al., 2024]) in cells expressing endogenous CB1R/CB2R. Competition assays were conducted by incubating 5, 40, or 40 µg of membrane protein from CHO cells, Jurkat cells or spleen cells, respectively, with 1.5 nM [^3H]-CP55940 or 1.5 nM [^3H]-RO6753361 in the presence or absence of increasing concentrations of ligand (RG7774 or control) for 2 h at 30°C in a final volume of 0.2 mL of assay buffer (50 mmol/L Tris-HCl, 5 mmol/L MgCl2, 2.5 mmol/L EDTA, and 0.5% fatty acid-free BSA [pH 7.4] and 1% DMSO), with gentle shaking. Saturation binding assays were conducted by incubating 1–3 μg, 40 μg, or 30–40 μg of membrane protein from CHO cells, Jurkat cells, or spleen tissue, respectively, with 12 concentrations in the range of 80–0.039 nM [^3H]-CP55940 or [^3H]-RO6753361 for 2 h at 30°C in a final volume of 0.2 mL/well of assay buffer without DMSO. […] IC50 values and Hill slopes were determined with a 4-parameter logistic model using ActivityBase (ID Business Solution, Guilford, United Kingdom) and pKi values were determined using the Cheng-Prusoff equation ([Cheng and Prusoff, 1973]).

Data set [3] is described as follows: Thermodynamic solubility (THESA/FaSSIF/FeSSIF). The class given is physicochemical. An excerpt:
S2.2 Thermodynamic solubility assay (THESA)

Data set [4] in a line: Cerebrospinal fluid versus plasma concentration (data on file). In kind it is in vivo. The settings on record: cynomolgus monkeys.
In the next data set the test system is Mouse DAGL. The data set is described as follows: Mouse DAGL assay (brain). In kind it is biochemical. The note with it: RG7774 10 µM. How it is done: as §1
The target of a further data set is T2, human CB2R (Homo sapiens, UniProt P34972).
T2 construct: bgal (beta-galactosidase fragment of the PathHunter system); host or cells: CHO-K1
T2 sequence (P34972 whole entry, the tested form may be a part): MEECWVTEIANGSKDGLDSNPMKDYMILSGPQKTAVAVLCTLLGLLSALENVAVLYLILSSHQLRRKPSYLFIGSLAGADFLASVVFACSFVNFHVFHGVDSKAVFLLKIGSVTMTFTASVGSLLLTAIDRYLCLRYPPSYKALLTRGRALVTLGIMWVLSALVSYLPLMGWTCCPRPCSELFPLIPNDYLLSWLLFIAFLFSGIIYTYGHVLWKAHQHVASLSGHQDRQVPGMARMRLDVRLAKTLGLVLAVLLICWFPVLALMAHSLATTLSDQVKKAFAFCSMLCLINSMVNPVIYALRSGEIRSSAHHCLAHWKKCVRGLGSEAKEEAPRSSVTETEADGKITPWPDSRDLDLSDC
Description: Competition binding, [^3H]-CP55940, CHO cell membranes. The note with it: competition binding assays. The method, then: as §2

Another data set deals with GAL2 (Homo sapiens, UniProt O43603). The class given is binding. An excerpt:
Supplement Table1.docx, table 3: Supplementary Table S3. RG7774 binding to non-CB1R/CB2R receptors, ion channels, transporters, and enzymes (CEREP, Celle l’Evescault, France; http://www.cerep.fr). | column: % inhibition of control SB (n = 2)

Where [5] appears, read: female, Wistar, rat, plasma, IV 10 mg/kg.
The mark [6] stands for this setting: female, Wistar, rat, plasma, PO 30 mg/kg.

GAL2, sequence (O43603 whole entry): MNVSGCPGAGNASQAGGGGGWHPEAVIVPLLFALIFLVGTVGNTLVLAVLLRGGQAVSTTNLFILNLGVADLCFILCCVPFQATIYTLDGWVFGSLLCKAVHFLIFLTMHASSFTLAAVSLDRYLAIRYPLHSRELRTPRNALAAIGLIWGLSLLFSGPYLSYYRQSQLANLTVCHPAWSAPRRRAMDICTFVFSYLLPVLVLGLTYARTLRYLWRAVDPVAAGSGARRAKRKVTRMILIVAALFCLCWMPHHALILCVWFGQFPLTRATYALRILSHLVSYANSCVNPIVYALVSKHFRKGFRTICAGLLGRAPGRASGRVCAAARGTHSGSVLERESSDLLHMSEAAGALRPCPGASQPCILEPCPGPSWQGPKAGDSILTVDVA

As to `Cn1nnnc1Cn1nnc2c(N3CC[C@H](O)C3)nc(C(C)(C)C)nc21` [RG7774, (S)-1-(5-tert-butyl-3-[(1-methyl-1H-tetrazol-5-yl)methyl]-3H-[1,2,3]triazolo[4,5-d]pyrimidin-7-yl)pyrrolidin-3-ol], the “Mean ± SEM % inhibition of control, Human DAGL” value in the data set with Human DAGL was 4.2 ± 52.2%. For the same compound, in data set [1] (IV 10 mg/kg), the AUCinf/dose is 6,000 (16) ng h^–1 ml^–1 (mg kg^−1) ^−1. For the same compound, in data set [1] (PO 30 mg/kg), the AUCinf/dose is on record as 4,670 (9.4) ng h^–1 ml^–1 (mg kg^−1) ^−1 and the Cmax/dose is recorded as 466 (13) ng ml^–1 (mg kg^–1) ^−1. For the same compound, in data set [1] (setting [5]), the clearance was determined as 2.84 mL/min/kg and the half-life is 2.54 h. In data set [1] (female, Wistar, rat, plasma, IV 10 mg/kg, read-out: Vss), the Vd was 0.442 L/kg. Moreover, in data set [1] (setting [6]), the Tmax stood at 1.25 h, the bioavailability came out at 81.4% and the half-life was 3.18 h. In addition, the Ki in data set [2] came out at 39.7 ± 13.5 nM. The FaSSIF in data set [3] (fasted simulated gastrointestinal fluid) is 1177 µg/mL. In data set [3] (fed simulated gastrointestinal fluid), this compound registered a FeSSIF of 2872 µg/mL. In data set [3] (thermodynamic solubility), this compound yielded a THESA of 901 µg/mL. Besides, in data set [4], the “concentrations lower in cerebrospinal fluid than in plasma” value was “approximately 10 fold”. Moreover, the “Mean ± SEM % inhibition of control, Mouse DAGL” value in the data set on Mouse DAGL was 17.0 ± 17.7%. Also, on human CB2R, the “binding selectivity for recombinant human CB2R over CB1R” value was over 195 fold. The “% inhibition of control SB (n = 2)” value on GAL2 is on record as “–4.0%”.
